The target in this assay is T1, KCNH6 potassium channel (Homo sapiens, UniProt Q9H252).
T1 construct: human KCNH6 (WT cDNA) transfected in HEK293T cells; FLAG-tagged for pull-down
T1 sequence (Q9H252 1-958): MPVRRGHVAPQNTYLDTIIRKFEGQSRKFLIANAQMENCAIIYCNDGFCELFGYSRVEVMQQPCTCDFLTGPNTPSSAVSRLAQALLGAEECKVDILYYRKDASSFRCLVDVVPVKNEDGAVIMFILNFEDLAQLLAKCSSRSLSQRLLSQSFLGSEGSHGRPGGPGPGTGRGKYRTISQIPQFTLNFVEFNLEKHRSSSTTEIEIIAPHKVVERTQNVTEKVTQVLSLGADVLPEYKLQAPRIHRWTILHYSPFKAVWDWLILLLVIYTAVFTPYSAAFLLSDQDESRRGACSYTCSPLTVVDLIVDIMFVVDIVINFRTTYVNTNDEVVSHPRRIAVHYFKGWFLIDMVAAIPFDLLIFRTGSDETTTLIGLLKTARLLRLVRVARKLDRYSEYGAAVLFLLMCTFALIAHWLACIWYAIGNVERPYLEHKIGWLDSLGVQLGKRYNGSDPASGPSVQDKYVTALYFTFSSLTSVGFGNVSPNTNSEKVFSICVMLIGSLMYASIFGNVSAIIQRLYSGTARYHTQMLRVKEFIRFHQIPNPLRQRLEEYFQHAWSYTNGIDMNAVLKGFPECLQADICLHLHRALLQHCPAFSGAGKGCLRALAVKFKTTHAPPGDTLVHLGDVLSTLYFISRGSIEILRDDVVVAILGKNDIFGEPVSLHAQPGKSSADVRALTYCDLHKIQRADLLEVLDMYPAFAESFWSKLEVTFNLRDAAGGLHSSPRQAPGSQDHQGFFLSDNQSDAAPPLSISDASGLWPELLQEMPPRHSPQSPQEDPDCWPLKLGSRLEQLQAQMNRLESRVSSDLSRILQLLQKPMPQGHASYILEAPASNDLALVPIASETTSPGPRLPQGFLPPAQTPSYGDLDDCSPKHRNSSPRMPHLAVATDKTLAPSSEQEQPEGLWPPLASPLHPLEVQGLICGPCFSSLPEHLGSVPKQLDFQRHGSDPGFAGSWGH
The assay is described as follows: whole-cell patch clamp of KCNH6-transfected HEK293T cells; affinity-bead pull-down from cell extract competed by free BBR. It counts as cell-based. (Patch clamp records ionic current or voltage across a cell membrane.)

For one compound, IC50 results are on record in paper PMC8460738, “Berberine is an insulin secretagogue targeting the KCNH6 potassium channel” (Nature Communications, 2021).

Usually IC50 stands for the point on the concentration scale where inhibition reaches its midpoint. A low value points to greater potency.

The compound `COc1ccc2cc3[n+](cc2c1OC)CCc1cc2c(cc1-3)OCO2` [BBR, berberine] yielded an IC50 of 1010 ± 40 nM.
